Our source for the EC50 values is patent publication US20230295201A1 (Gilead Sciences, Inc., priority 2020, published 2023).

Type in all cases: cell-based
One experiment deals with RSV strain A2. The experiment is described as follows: RSV HEp-2 EC50 (infectious cytopathic cell protection assay). As to conditions: HEp-2 cells, RSV A2, 4 days, read-out: RSV HEp-2 EC50. In short, it runs like this:
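HEp-2 cells mixed with titered RSV A2 at 50,000 cells/ml were added to plates holding 3-fold serial compound dilutions in DMSO, then incubated 4 days at 37° C. Cytoprotection was read as cell viability by CellTiter-Glo luminescence and converted to percent inhibition against 0% and 100% inhibition controls.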

For the next experiment, the system named is RSV A2. The experiment in a line: RSV NHBE EC50 (RSV A2 antiviral assay in normal human bronchial epithelial cells). As to conditions: NHBE cells, RSV A2, 4 days, read-out: RSV NHBE EC50.
In a further experiment the test system is DENV2 replicon. The experiment in a line: DENV-2 Huh-7 Rep EC50 (replicon luminescence). As to conditions: Huh-7 replicon cells, 48 hours, read-out: DENV-2 Huh-7 Rep EC50. The protocol:
In 384 well plates (Greiner, Cat #781091), compounds were acoustically transferred at 200 nl per well in a 8 compound (4 replicates) or 40 compound dose response format (3 replicates). For all plates tested, Balapiravir, GS-5734 and NITD008 were included as positive inhibition controls alongside 0% inhibition, DMSO-only negative control wells. Following compound addition, Huh-7 cells containing the DENV2 replicon construct were harvested following standard cell culture procedures and were adjusted to a concentration of 1.25E5 cells/mL in cell culture media composed of cDMEM without genticin. 40 μL of the cell stock was then added to each well for a final cell density of 5,000 cells/well. Cell and compound mixtures were incubated at 37° C./5% CO2 for 48 hours. Prior to harvesting cells, EnduRen Live Cell Substrate (Promega, Cat #E6481) was prepared by suspending 3.4 mg into 100 uL of DMSO to generate a 60 mM stock solution. The stock solution was then diluted 1:200 in pre-warmed cDMEM and 10 uL of this diluted solution was added to each well of the 384 well plates. Plates were then centrifuged at 500 rpm briefly and were placed on a plate shaker for 2 min. Following mixing, plates were incubated at […] for 1.5 hours prior to measuring luminescence on an Envision luminometer.

In another experiment the test system is HRV16. The experiment in a line: HRV16 HELA EC50 (cytopathic effect in H1-HeLa cells). In short, it runs like this:
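H1-HeLa cells seeded one day before, given 3-fold serial compound dilutions in triplicate just prior to infection with pre-titrated virus. Incubated 96 h at 33 °C/5% CO2; protection from cytopathic effect read as viability by CellTiter-Glo luminescence, normalised to infected untreated (0%) and uninfected (100%) controls.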

The mark [1] stands for this setting: human respiratory syncytial virus, HEp-2, 96 h.
[2] abbreviates: human respiratory syncytial virus, NHBE, 96 h.
[3] abbreviates: Dengue virus, DENV2, Huh-7, 48 h.
The mark [4] stands for this setting: 96 h, H1-HeLa cells, 33° C., read-out: HRV16 HELA EC50.

Where two headings read alike, the source gives them in different places.

Broadly, the EC50 is the concentration giving half of the maximal effect. As to `C[C@H](NP(=O)(OC[C@@]1(C#N)O[C@@H](c2ccc3c(N)ncnn23)[C@H](O)[C@@H]1O)Oc1ccccc1)C(=O)O[C@H]1CCCC[C@@H]1C` (mixture of isomers) [Example 155, trans-2-methylcyclohexyl ((((2R,3S,4R,5S)-5-(4-aminopyrrolo[2,1-f][1,2,4]triazin-7-yl)-2-cyano-3,4-dihydroxytetrahydrofuran-2-yl)methoxy)(phenoxy)phosphoryl)-L-alaninate], the EC50 in the experiment on RSV strain A2 (setting [1]) stood at 4.32 µM; with RSV A2 (setting [2]), 1.58 µM; in the experiment with DENV2 replicon (setting [3]), 84.4 µM; in the experiment with HRV16 (setting [4]), 4.2 µM.

With `CCC(CC)OC(=O)[C@H](CC)NP(=O)(OC[C@@]1(C#N)O[C@@H](c2ccc3c(N)ncnn23)[C@H](O)[C@@H]1O)Oc1ccccc1` (mixture of isomers) [Example 115, (2S)-pentan-3-yl 2-(((((2R,3S,4R,5S)-5-(4-aminopyrrolo[2,1-f][1,2,4]triazin-7-yl)-2-cyano-3,4-dihydroxytetrahydrofuran-2-yl)methoxy)(phenoxy)phosphoryl)amino)butanoate], the EC50 was 8.66 µM in the experiment with RSV strain A2 (setting [1]), 1.55 µM with RSV A2 (setting [2]), more than 50 µM in the experiment with DENV2 replicon (setting [3]) and 10.3 µM with HRV16 (setting [4]).

Turning to `CCCC(=O)Nc1ncnn2c([C@@H]3O[C@](C#N)(CO[P@@](=O)(N[C@@H](C)C(=O)OC4CCCCC4)Oc4ccccc4)[C@@H](O)[C@H]3O)ccc12` [Example 231, Cyclohexyl ((S)-(((2R,3S,4R,5S)-5-(4-butyramidopyrrolo[2,1-f][1,2,4]triazin-7-yl)-2-cyano-3,4-dihydroxytetrahydrofuran-2-yl)methoxy)(phenoxy)phosphoryl)-L-alaninate], the EC50 with RSV strain A2 (setting [1]) stood at 0.152 µM; in the experiment on RSV A2 (setting [2]) it was 0.19 µM; with DENV2 replicon (setting [3]), 14.7 µM; in the experiment on HRV16 (setting [4]), 1.2 µM.

Regarding `N#C[C@]1(COP(=O)(N[C@H](C(=O)OCC2CC2)C2CCCCC2)Oc2ccccc2)O[C@@H](c2ccc3c(N)ncnn23)[C@H](O)[C@@H]1O` (stereo partly drawn) [Example 121, (2S)-cyclopropylmethyl 2-(((((2R,3S,4R,5S)-5-(4-aminopyrrolo[2,1-f][1,2,4]triazin-7-yl)-2-cyano-3,4-dihydroxytetrahydrofuran-2-yl)methoxy)(phenoxy)phosphoryl)amino)-2-cyclohexylacetate], the concentration for a half-maximal effect (EC50) was more than 100 µM with RSV strain A2 (setting [1]), more than 5 µM in the experiment with RSV A2 (setting [2]), 56.7 µM in the experiment with DENV2 replicon (setting [3]) and more than 100 µM with HRV16 (setting [4]).

For the compound `CC1(C(=O)OCCNP(=O)(OC[C@@]2(C#N)O[C@@H](c3ccc4c(N)ncnn34)[C@H](O)[C@@H]2O)Oc2ccccc2)CC1` (stereo partly drawn) [Example 141, 2-(((((2R,3S,4R,5S)-5-(4-aminopyrrolo[2,1-f][1,2,4]triazin-7-yl)-2-cyano-3,4-dihydroxytetrahydrofuran-2-yl)methoxy)(phenoxy)phosphoryl)amino)ethyl 1-methylcyclopropane-1-carboxylate], the EC50 in the experiment on RSV strain A2 (setting [1]) is 2.01 µM; in the experiment with RSV A2 (setting [2]), 0.067 µM; in the experiment with DENV2 replicon (setting [3]) it was more than 50 µM; in the experiment with HRV16 (setting [4]), 14.9 µM.

As to `C[C@H](NP(=O)(OC[C@@]1(C#N)O[C@@H](c2ccc3c(N)ncnn23)[C@H](O)[C@@H]1O)Oc1ccccc1)C(=O)OC1CCCCCC1` (single isomer, unassigned) [Example 136], the EC50 in the experiment with RSV strain A2 stood at 2.77 µM; in the experiment on RSV A2, 0.095 µM; in the experiment on DENV2 replicon (setting [3]), 51.1 µM; in the experiment with HRV16 (setting [4]) it was 0.577 µM.

Consider `COC(C)(C)COC(=O)[C@H](C)NP(=O)(OC[C@@]1(C#N)O[C@@H](c2ccc3c(N)ncnn23)[C@H](O)[C@@H]1O)Oc1ccccc1` (stereo partly drawn) [Example 164, 2-methoxy-2-methylpropyl ((((2R,3S,4R,5S)-5-(4-aminopyrrolo[2,1-f][1,2,4]triazin-7-yl)-2-cyano-3,4-dihydroxytetrahydrofuran-2-yl)methoxy)(phenoxy)phosphoryl)-L-alaninate], for which the EC50 with RSV strain A2 (setting [1]) is 1.22 µM; with RSV A2 (setting [2]), 0.724 µM; in the experiment with DENV2 replicon (setting [3]), more than 50 µM; in the experiment on HRV16 (setting [4]), 4 µM.

On to `N#C[C@]1(COP(=O)(NCC(=O)OC2CCCC2)Oc2ccccc2)O[C@@H](c2ccc3c(N)ncnn23)[C@H](O)[C@@H]1O` (mixture of isomers) [Example 112, cyclopentyl 2-(((((2R,3S,4R,5S)-5-(4-aminopyrrolo[2,1-f][1,2,4]triazin-7-yl)-2-cyano-3,4-dihydroxytetrahydrofuran-2-yl)methoxy)(phenoxy)phosphoryl)amino)acetate], for which the EC50 in the experiment with RSV strain A2 (setting [1]) was 1.41 µM; with RSV A2 (setting [2]), 0.464 µM; in the experiment with DENV2 replicon (setting [3]) it was more than 50 µM; in the experiment with HRV16 (setting [4]) it was 3.69 µM.

For the compound `N#C[C@]1(COP(=O)(N[C@H](C(=O)OCC2CC2)C2CCCC2)Oc2ccccc2)O[C@@H](c2ccc3c(N)ncnn23)[C@H](O)[C@@H]1O` (stereo partly drawn) [Example 123, (2S)-cyclopropylmethyl 2-(((((2R,3S,4R,5S)-5-(4-aminopyrrolo[2,1-f][1,2,4]triazin-7-yl)-2-cyano-3,4-dihydroxytetrahydrofuran-2-yl)methoxy)(phenoxy)phosphoryl)amino)-2-cyclopentylacetate], the EC50 in the experiment with RSV strain A2 (setting [1]) is more than 100 µM; in the experiment with RSV A2 (setting [2]) it was more than 5 µM; in the experiment with DENV2 replicon (setting [3]), 48.5 µM; in the experiment with HRV16 (setting [4]) it was more than 100 µM.

As for `CCOC(=O)[C@H](Cc1ccccc1)NP(=O)(OC[C@@]1(C#N)O[C@@H](c2ccc3c(N)ncnn23)[C@H](O)[C@@H]1O)Oc1ccccc1` (stereo partly drawn) [Example 3, (2S)-ethyl 2-(((((2R,3S,4R,5S)-5-(4-aminopyrrolo[2,1-f][1,2,4]triazin-7-yl)-2-cyano-3,4-dihydroxytetrahydrofuran-2-yl)methoxy)(phenoxy)phosphoryl)amino)-3-phenylpropanoate], the EC50 is 4.09 µM in the experiment with RSV strain A2 (setting [1]), 1.69 µM with RSV A2 (setting [2]), more than 100 µM in the experiment with DENV2 replicon (setting [3]) and 8.96 µM in the experiment on HRV16 (setting [4]).

Consider `C[C@H](NP(=O)(OC[C@@]1(C#N)O[C@@H](c2ccc3c(N)ncnn23)[C@H](O)[C@@H]1O)Oc1ccccc1)C(=O)O[C@H]1CCN(C)C1` (stereo partly drawn) [Example 15, (S)-1-methylpyrrolidin-3-yl ((((2R,3S,4R,5S)-5-(4-aminopyrrolo[2,1-f][1,2,4]triazin-7-yl)-2-cyano-3,4-dihydroxytetrahydrofuran-2-yl)methoxy)(phenoxy)phosphoryl)-L-alaninate], for which the half-maximal effective concentration (EC50) in the experiment on RSV strain A2 (setting [1]) was 4.33 µM; in the experiment with RSV A2 (setting [2]) it was 3.25 µM; in the experiment on DENV2 replicon (setting [3]), more than 50 µM; in the experiment with HRV16 (setting [4]) it was 11.4 µM.

Regarding `C[C@H](NP(=O)(OC[C@@]1(C#N)O[C@@H](c2ccc3c(N)ncnn23)[C@H](O)[C@@H]1O)Oc1ccccc1)C(=O)OC1CCOCC1` (stereo partly drawn) [Example 55, tetrahydro-2H-pyran-4-yl ((((2R,3S,4R,5S)-5-(4-aminopyrrolo[2,1-f][1,2,4]triazin-7-yl)-2-cyano-3,4-dihydroxytetrahydrofuran-2-yl)methoxy)(phenoxy)phosphoryl)-L-alaninate], the EC50 in the experiment with RSV strain A2 (setting [1]) is 0.57 µM; with RSV A2 (setting [2]) it was 4.29 µM; in the experiment with DENV2 replicon (setting [3]), more than 50 µM; with HRV16 (setting [4]), 6.91 µM.

`CC[C@H](N[P@](=O)(OC[C@@]1(C#N)O[C@@H](c2ccc3c(N)ncnn23)[C@H](O)[C@@H]1O)Oc1ccccc1)C(=O)OCC(C)(C)C` [Example 159]: the EC50 is 0.22 µM with RSV strain A2; 0.489 µM in the experiment on RSV A2; more than 50 µM in the experiment with DENV2 replicon; 1.28 µM with HRV16 (H1-HeLa cells, 96 h, 33° C.; read-out: HRV16 HELA EC50).

For `CCC(CC)COC(=O)[C@H](CC(C)C)NP(=O)(OC[C@@]1(C#N)O[C@@H](c2ccc3c(N)ncnn23)[C@H](O)[C@@H]1O)Oc1ccccc1` (single isomer, unassigned) [Example 129], the EC50 is 42.9 µM in the experiment on RSV strain A2, more than 5 µM with RSV A2, 26.7 µM in the experiment with DENV2 replicon (setting [3]) and 41.6 µM with HRV16 (setting [4]).

Take `CCCCCCCCCCCCCCCCOC(=O)[C@H](C)NP(=O)(OC[C@@]1(C#N)O[C@@H](c2ccc3c(N)ncnn23)[C@H](O)[C@@H]1O)Oc1ccccc1` (stereo partly drawn) [Example 199, hexadecyl ((((2R,3S,4R,5S)-5-(4-aminopyrrolo[2,1-f][1,2,4]triazin-7-yl)-2-cyano-3,4-dihydroxytetrahydrofuran-2-yl)methoxy)(phenoxy)phosphoryl)-L-alaninate]: the EC50 with RSV strain A2 (setting [1]) came to 1.12 µM; in the experiment with RSV A2 (setting [2]), 0.033 µM; in the experiment with DENV2 replicon (setting [3]), 37.8 µM; in the experiment on HRV16 (setting [4]), 0.738 µM.
